In ChEMBL document CHEMBL1629619, “qnrD, a novel gene conferring transferable quinolone resistance in Salmonella enterica serovar Kentucky and Bovismorbificans strains of human origin” (2009):
In brackets after ≈: the same amount, converted by molar mass. Activity calls are given as the source filed them. No cut-off for these calls is given here.

Legend:
[1] = Antimicrobial activity against Salmonella enterica serovar Kentucky by broth microdilution assay
Escherichia coli [2] = assay: Antimicrobial activity against Escherichia coli DH10B harboring p2007057 by broth microdilution assay; format: functional; settings: K-12 DH10B
Escherichia coli [3] = assay: Antimicrobial activity against Escherichia coli DH10B harboring pBR322 by broth microdilution assay; format: functional; settings: K-12 DH10B
Escherichia coli [4] = assay: Antimicrobial activity against Escherichia coli DH10B by broth microdilution assay; format: functional; settings: K-12 DH10B
Escherichia coli [5] = assay: Antimicrobial activity against Escherichia coli DH10B harboring pBR322 with Salmonella enterica HN-GSS-2007-057 qnrS1 gene by broth microdilution assay; format: functional; settings: K-12 DH10B
Escherichia coli [6] = assay: Antimicrobial activity against Escherichia coli DH10B harboring pBR322 with Salmonella enterica HN-GSS-2007-057 qnrA1 gene by broth microdilution assay; format: functional; settings: K-12 DH10B
[7] = Antimicrobial activity against Salmonella enterica serovar Bovismorbificans by broth microdilution assay; format: functional, Salmonella enterica subsp. enterica serovar Bovismorbificans
Escherichia coli [8] = assay: Antimicrobial activity against Escherichia coli DH10B harboring pBR322 with Salmonella enterica HN-GSS-2007-057 qnrD gene by broth microdilution assay; format: functional; settings: K-12 DH10B
Salmonella enterica [9] = assay: Antimicrobial activity against Salmonella enterica HN-GSS2007-0.033 by broth microdilution assay; format: functional, organism-based
Salmonella enterica [10] = assay: Antimicrobial activity against Salmonella enterica HN-GSS2006-142 by broth microdilution assay; format: functional, organism-based
Salmonella enterica [11] = assay: Antimicrobial activity against Salmonella enterica HN-GSS-2007-057 by broth microdilution assay; format: functional, organism-based
Salmonella enterica [12] = assay: Antimicrobial activity against Salmonella enterica HN-GSS2007-0.056 by broth microdilution assay; format: functional, organism-based

SMILES | MIC [1] | MIC (Escherichia coli [2]) | MIC (Escherichia coli [3]) | MIC (Escherichia coli [4]) | MIC (Escherichia coli [5]) | MIC (Escherichia coli [6]) | MIC [7] | MIC (Escherichia coli [8]) | Activity (Salmonella enterica [9]) | Activity (Salmonella enterica [10]) | Activity (Salmonella enterica [11]) | Activity (Salmonella enterica [12])
O=C(O)c1cn(C2CC2)c2cc(N3CCNCC3)c(F)cc2c1=O [CIPROFLOXACIN] | 0.125 µg/mL (≈ 0.377 µM) | – | – | – | – | – | – | – | – | – | – | –
CCn1cc(C(=O)O)c(=O)c2ccc(C)nc21 [NALIDIXIC ACID] | – | 8 µg/mL (≈ 34.4 µM) | 2 µg/mL (≈ 8.61 µM) | 2 µg/mL (≈ 8.61 µM) | 8 µg/mL (≈ 34.4 µM) | 8 µg/mL (≈ 34.4 µM) | 8 µg/mL (≈ 34.4 µM) | 4 µg/mL (≈ 17.2 µM) | – | – | – | –
CCn1cc(C(=O)O)c(=O)c2cc(F)c(N3CCNCC3)cc21 [NORFLOXACIN] | – | 0.125 µg/mL (≈ 0.391 µM) | 0.015 µg/mL (≈ 0.047 µM) | 0.015 µg/mL (≈ 0.047 µM) | 0.5 µg/mL (≈ 1.57 µM) | 0.25 µg/mL (≈ 0.783 µM) | – | 0.06 µg/mL (≈ 0.188 µM) | Active | Active | Active | Active
CC1COc2c(N3CCN(C)CC3)c(F)cc3c(=O)c(C(=O)O)cn1c23 (stereo unspecified) [OFLOXACIN] | – | 0.25 µg/mL (≈ 0.692 µM) | 0.032 µg/mL (≈ 0.0886 µM) | – | – | 0.25 µg/mL (≈ 0.692 µM) | – | 0.125 µg/mL (≈ 0.346 µM) | Active | Active | Active | Active
